We go through eight molecules from PubChem BioAssay (NCI).

What all share (assay): NCI-60 cell line screen, 48 h
Experiment [1] deals with NCI-H226 lung.
In experiment [2] the test system is MCF7 breast.
Experiment [3] has as its system HS 578T breast.
Experiment [4] relates to U251 CNS.
Experiment [5] has as its system OVCAR-8 ovarian.
The subject of experiment [6] is EKVX NSCLC.
In experiment [7] the test system is ACHN renal.
In experiment [8] the test system is MALME-3M melanoma.
The subject of experiment [9] is A549 NSCLC.
The test system of experiment [10] is MDA-MB-435.

Molecules are shown by their SMILES.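 Following 48 hours of exposure in 96-well plates, responses at five concentrations were used to interpolate endpoints linearly. GI50 marks 50% less growth. Definition used: TGI = concentration required for complete inhibition of growth.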

With `CCCCCCCCCCCCCCCC(N)c1ccccc1` (stereo not given), the GI50 in experiment [1] was 1.91 µM; in [2], 1.62 µM; in experiment [3], 2.02 µM; in experiment [4], 1.68 µM; in [5], 2.22 µM; in [6], 1.59 µM. In addition, the GI50 in experiment [7] was 1.79 µM; in experiment [8], 1.6 µM; in [9] it was 1.78 µM; in experiment [10], 1.61 µM. Further, the TGI is 3.69 µM in experiment [1]; 3.18 µM in [2]; 4.64 µM in experiment [3]; 3.2 µM in experiment [4]; 4.89 µM in [5]; 3.01 µM in experiment [6]. Besides, the TGI in experiment [7] was determined as 3.34 µM; in [8], 3.28 µM; in [9], 3.56 µM; in experiment [10] it was 3.04 µM.

`O=C1C=C(OCC=C(Cl)Cl)C(=O)c2ccccc21`: the GI50 is 18.7 µM in [1]; 1.61 µM in [2]; 2.7 µM in [3]; 2.41 µM in experiment [4]; 3.29 µM in experiment [5]; 3.33 µM in experiment [6]. The GI50 was 7.02 µM in experiment [7], 2.18 µM in experiment [8], 33.2 µM in [9] and 1.65 µM in experiment [10]. For the same molecule, the TGI in experiment [1] was found to be 67.5 µM; in experiment [2], 3.81 µM; in experiment [3], 8.47 µM; in experiment [4], 13.8 µM; in experiment [5], 15.8 µM; in [6], 28.2 µM. Moreover, the TGI is 99.7 µM in experiment [7], 6.11 µM in [8], over 100 µM in experiment [9] and 3.04 µM in experiment [10].

As for `O=C1/C(=C/c2cccc(F)c2)CN(C(=O)C(Cl)Cl)C/C1=C\c1cccc(F)c1`, the GI50 is 0.259 µM in experiment [1]; 0.0405 µM in experiment [2]; 0.303 µM in [3]; 0.116 µM in [4]; 0.184 µM in experiment [5]; 0.263 µM in [6]. Besides, the GI50 was 0.212 µM in [7], 0.218 µM in [8], 0.655 µM in [9] and 0.21 µM in experiment [10]. Also, the TGI in experiment [1] is 0.685 µM; in experiment [2], 0.241 µM; in experiment [3], 1.25 µM; in experiment [4], 0.294 µM; in experiment [5], 1.13 µM; in experiment [6] it was 0.804 µM. In addition, the TGI in experiment [7] came to 0.517 µM; in experiment [8] it was 0.621 µM; in experiment [9] it was 2.14 µM; in experiment [10], 0.491 µM.

`NS(=O)(=O)c1ccc(N=Nc2c(=O)[nH]c3ccc4[nH]cccc4c23)cc1`: the GI50 was 0.317 µM in experiment [1]; 0.129 µM in [2]; 0.575 µM in [3]; 0.313 µM in experiment [4]; 0.342 µM in experiment [5]; 2.1 µM in [6]. Further, the GI50 in experiment [7] was 0.694 µM; in experiment [8] it was 1.05 µM; in experiment [9], 1.89 µM; in experiment [10], 0.553 µM. The TGI in experiment [1] was 3.06 µM; in experiment [2] it was over 25 µM; in [3], over 6.85 µM; in [4], over 25 µM; in [5], over 25 µM; in [6], over 25 µM. Besides, the TGI in [7] is over 25 µM; in [8] it was 3.05 µM; in experiment [9], over 25 µM; in [10] it was over 25 µM.

On to `CC(=O)Nc1cc(CN2CCCCC2)c(O)c2ncccc12`, for which the TGI in experiment [1] was 86.1 µM; in [2], over 100 µM; in [3], over 100 µM; in [4], 42 µM; in experiment [5], over 100 µM; in experiment [6] it was over 100 µM. For the same molecule, the TGI is 72.2 µM in experiment [7], 69.4 µM in experiment [8], over 100 µM in [9] and over 100 µM in experiment [10].

On to `C[C@H](c1ccc(Cl)cc1[N+](=O)[O-])N1C(=O)c2cc(I)ccc2NC(=O)[C@H]1c1ccc(Cl)cc1`, for which the GI50 in experiment [1] was over 100 µM; in experiment [2], 6.53 µM; in experiment [3], 6.5 µM; in experiment [4] it was over 100 µM; in experiment [5], over 100 µM; in [6], 4.98 µM. Moreover, the GI50 in experiment [7] is over 100 µM; in experiment [8] it was over 100 µM; in [9], 6.01 µM; in [10], over 100 µM. Moreover, the TGI in [1], in experiment [2], in experiment [3], in experiment [4], in [5] and in experiment [6] was over 100 µM each time. Also, the TGI in experiment [7], in experiment [8], in experiment [9] and in experiment [10] was over 100 µM each time.

For `COc1ccc(-c2cc(=O)c3cccnc3[nH]2)cc1`, the TGI in experiment [1], in [2], in experiment [3], in experiment [4], in [5] and in [6] was over 100 µM in each case. Further, the TGI is over 100 µM in experiment [7], over 100 µM in experiment [8], over 100 µM in experiment [9] and 91.6 µM in experiment [10]. The GI50 in experiment [4] is 54.1 µM; in experiment [10], 20 µM.

Regarding `C=C1C(OCCO)OC2O[C@]3(C)CCC4[C@H](C)CCC1C24OO3` (stereo not given in full), the GI50 was 17.4 µM in experiment [2]; 19.9 µM in experiment [3]; 35 µM in experiment [4]; 2.16 µM in experiment [5]; 23.2 µM in experiment [6]; 31.4 µM in experiment [7]. The GI50 in experiment [8] was 52.7 µM; in experiment [9] it was 28.4 µM; in experiment [10] it was 12.9 µM. In addition, the TGI in [2] was over 100 µM; in experiment [3], over 100 µM; in experiment [4], over 100 µM; in experiment [5], 12.5 µM; in experiment [6], over 100 µM; in experiment [7] it was over 100 µM. For the same molecule, the TGI in experiment [8] was over 100 µM; in experiment [9] it was over 100 µM; in experiment [10], 83.6 µM.
